Source: patent US20050152842A1, “Poly (L-glutamic acid) paramagnetic material complex and use as a biodegradable MRI contrast agent” (priority 2003, published 2005)

Assays:
[1] = MRI studies of vascular enhancement and intravascular retention in mice; assay type: in vivo; details: dose of 0.1 mmol/kg, intravenous
Experimental: For MRI studies using complexes prepared as described in the earlier examples, mice were anesthetized with 1-2% isoflurane in a 1 L/min O2 flow and place prone within a custom sled. A custom catheter made from 2 Fr silicon tubing and a 27 gauge needle was inserted in the tail vein of the mouse. Gd-DTPA ([…]) or PG-Hex-DTPA-Gd (0.004 mmol Gd/ml, 0.02 mmol Gd/kg) was injected through the catheter and the catheter flushed with normal saline. Two-dimensional coronal section spin-echo images were obtained before and at 2 hours and 24 hours after contrast agent injection using a 2.5 cm quadrature birdcage coil on a 1.5 T Sigma LX MR scanner (GE Medical Systems, WI). Six 1.5 mm contiguous sections were obtained using a 6 cm field-of-view, a 256×192 acquisition matrix and 4 averages. Similar studies were performed with PEG/PG-Hex-DTPA-Gd.
A fast spoiled gradient-echo sequence was used to obtain the data from 8 anatomic sections with 7.1 s temporal resolution. Other acquisition parameters were echo time: 1.4 ms, repetition time: 40 ms, flip angle: 35°, acquisition matrix size: 128×128. […] Such long intravascular retention times are useful for contrast-enhanced MR angiography, for assessment of microvascular volume, and for characterizing changes in permeability of highly “leaky” vasculature. Retention of the contrast in the tumor was also noted in the same time period (FIG. 6B).

[2] = 1.5 Tesla in phosphate-buffered saline; from Unger et al. 1999; cited from earlier work
Cathepsin B = Cathepsin B (Homo sapiens, UniProt P07858)
Experimental: PG-Hex-BzDTPA-Gd was dissolved in PBS buffer (pH 5) at a concentration of 5.3 mg/ml. Cathepsin B, which is able to degrade the complex, was added to the solution to a final concentration of 10 units/ml. The degradation was monitored at different time intervals using a gel permeation chromatography (GPC) system equipped with an TSK G3000PW column (TosoHaas), a Waters 515 HPLC pump, and a Viscotek E-Z^pro triple detector array. The system was eluted with PBS buffer containing 0.1% LiBr (pH 7.4) at a flow rate of 1 ml/min.

Row | Molecule | Vascular enhancement 2 hours after injection [1] | Relaxivity R1 [2] | Time in which the polymer was almost completely degraded (Cathepsin B) | Degradation on incubation with Cathepsin B (in words) (Cathepsin B; pH 5)
1 | O=C([O-])CN(CCN(CC(=O)[O-])CC(=O)O)CCN(CC(=O)[O-])CC(=O)O.[Gd+3] [DTPA-Gd] | not detected | 4.1 mM^−1Sec^−1 |  | 
2 | poly(L-glutamic acid) [PG] |  |  | 100 min | rapidly degraded
